Assay results as given in ChEMBL document CHEMBL1131475, “Discovery of ritonavir, a potent inhibitor of HIV protease with high oral bioavailability and clinical efficacy” (J Med Chem, 1998).

Legend:
in vivo [1] = details: rat, plasma, po
in vivo [2] = details: rat, plasma, po, 10 mg/kg
Rattus norvegicus = organism: Rattus norvegicus; test: Plasma T1/2 in rat; assay type: ADME, organism-based; details: in vivo
in vivo [3] = details: rat, plasma, po; remark: listed apart in the source
[4] = Oral bioavailability in rat; assay type: ADME, organism-based; details: in vivo
in vivo [5] = details: rat, plasma, iv

SMILES | AUC (in vivo [1]) [µg·h/mL] | Cmax (in vivo [2]) [µM] | T1/2 (Rattus norvegicus) | Tmax (in vivo [3]) [min] | bioavailability [4] [%] | half-life (in vivo [5]) [min]
CC(C)C(NC(=O)OCc1csc(N2CCOCC2)n1)C(=O)N[C@@H](Cc1ccccc1)C[C@H](O)[C@H](Cc1ccccc1)NC(=O)OCc1cncs1 (some centres undefined) | 0.04 | 0.17 | Not soluble | 6 |  | 
CC(C)c1nc(CCOC(=O)NC(C(=O)N[C@@H](Cc2ccccc2)[C@@H](O)C[C@H](Cc2ccccc2)NC(=O)OCc2cncs2)C(C)C)cs1 (some centres undefined) |  |  | Not soluble |  | 0 | 
CCN(Cc1csc(C(C)C)n1)C(=O)NC(C(=O)N[C@@H](Cc1ccccc1)C[C@H](O)[C@H](Cc1ccccc1)NC(=O)OCc1cncs1)C(C)C (some centres undefined) | 9.85 | 3.33 | Not soluble | 228 |  | 
CCN(Cc1csc(C(C)C)n1)C(=O)NC(C)C(=O)N[C@@H](Cc1ccccc1)C[C@H](O)[C@H](Cc1ccccc1)NC(=O)OCc1cncs1 (some centres undefined) |  |  | Not soluble |  | 0 | 
CC(C)c1nc(COC(=O)NC(C(=O)N[C@@H](Cc2ccccc2)[C@@H](O)C[C@H](Cc2ccccc2)NC(=O)OCc2cncs2)C(C)C)cs1 (some centres undefined) |  |  | Not soluble |  | 0 | 
CC(C)c1nc(COC(=O)NC(C(=O)N[C@@H](Cc2ccccc2)C[C@H](O)[C@H](Cc2ccccc2)NC(=O)OCc2cncs2)C(C)C)cs1 (some centres undefined) | 0.01 | 0.04 | Not soluble | 6 |  | 
CC(C)C(NC(=O)OCc1csc(N2CCOCC2)n1)C(=O)N[C@@H](Cc1ccccc1)[C@@H](O)C[C@H](Cc1ccccc1)NC(=O)OCc1cncs1 (some centres undefined) |  |  | Not soluble |  |  | 
CC(C)C(NC(=O)OCc1ccccn1)C(=O)N[C@@H](Cc1ccccc1)[C@@H](O)C[C@H](Cc1ccccc1)NC(=O)OCc1ccoc1 (some centres undefined) | 0.23 | 0.25 | Not soluble | 16.8 |  | 
Cc1ncsc1CCOC(=O)NC(C(=O)N[C@@H](Cc1ccccc1)C[C@H](O)[C@H](Cc1ccccc1)NC(=O)OCc1cccnc1)C(C)C (some centres undefined) | 1.53 | 0.96 | Not soluble |  |  | 
CCc1ncc(COC(=O)NC(C(=O)N[C@@H](Cc2ccccc2)[C@@H](O)C[C@H](Cc2ccccc2)NC(=O)OCc2cccnc2)C(C)C)s1 (some centres undefined) | 0.49 | 0.34 |  | 16.8 | 9.2 | 73.8
Cc1ccc(COC(=O)NC(C(=O)N[C@@H](Cc2ccccc2)C[C@H](O)[C@H](Cc2ccccc2)NC(=O)OCc2cccnc2)C(C)C)cn1 (some centres undefined) | 0.27 | 0.78 |  | 9 | 6.4 | 39
CCc1nc(CN(C)C(=O)NC(C(=O)N[C@@H](Cc2ccccc2)C[C@H](O)[C@H](Cc2ccccc2)NC(=O)OCc2cncs2)C(C)C)cs1 (some centres undefined) | 14.2 | 6.17 |  | 72 | 70 | 48
CCc1cccc(COC(=O)NC(C(=O)N[C@@H](Cc2ccccc2)C[C@H](O)[C@H](Cc2ccccc2)NC(=O)OCc2cccnc2)C(C)C)n1 (some centres undefined) | 0.47 | 0.59 |  | 12 | 8 | 23.4
CC(C)C(NC(=O)OCc1cnccn1)C(=O)N[C@@H](Cc1ccccc1)C[C@H](O)[C@H](Cc1ccccc1)NC(=O)OCc1cccnc1 (some centres undefined) | 0.1 | 0.5 |  | 12 | 2.4 | 12
CC(C)C(NC(=O)N(C)Cc1ccccn1)C(=O)N[C@@H](Cc1ccccc1)C[C@H](O)[C@H](Cc1ccccc1)NC(=O)OCc1cncnc1 (some centres undefined) | 0.22 | 0.91 |  | 18 | 5.1 | 52.2
COCc1nc(CN(C)C(=O)NC(C(=O)N[C@@H](Cc2ccccc2)C[C@H](O)[C@H](Cc2ccccc2)NC(=O)OCc2cccnc2)C(C)C)cs1 (some centres undefined) | 0.49 | 1.35 |  | 12 | 8 | 23.4
CCc1nc(CN(C)C(=O)NC(C(=O)N[C@@H](Cc2ccccc2)[C@@H](O)C[C@H](Cc2ccccc2)NC(=O)OCc2cccnc2)C(C)C)cs1 (some centres undefined) | 0.87 | 1.46 |  | 12 | 20 | 44.4
COc1ccc(COC(=O)NC(C(=O)N[C@@H](Cc2ccccc2)C[C@H](O)[C@H](Cc2ccccc2)NC(=O)OCc2cccnc2)C(C)C)cn1 (some centres undefined) | 0.03 | 0.19 |  | 6 | 0.7 | 19.8
Cc1cccc(COC(=O)NC(C(=O)N[C@@H](Cc2ccccc2)C[C@H](O)[C@H](Cc2ccccc2)NC(=O)OCc2ccoc2)C(C)C)n1 (some centres undefined) | 0.02 | 0.16 | Not soluble | 8.4 |  | 
CC(C)c1nc(CN(C(=O)NCCC(=O)N[C@@H](Cc2ccccc2)[C@@H](O)C[C@H](Cc2ccccc2)NC(=O)OCc2cncs2)C2CC2)cs1 | 0.4 | 0.65 |  | 16.8 | 9.4 | 20.4
CC(C)C(NC(=O)N(C)Cc1csc(C(C)(C)C)n1)C(=O)N[C@@H](Cc1ccccc1)C[C@H](O)[C@H](Cc1ccccc1)NC(=O)OCc1cccnc1 (some centres undefined) | 0.23 | 0.38 |  | 19.8 | 5.3 | 17.4
CC(C)C(NC(=O)OCc1ccccn1)C(=O)N[C@@H](Cc1ccccc1)[C@@H](O)C[C@H](Cc1ccccc1)NC(=O)OCc1cncs1 (some centres undefined) | 1.49 | 2.98 | Not soluble | 8.4 |  | 
COCc1nc(CN(C)C(=O)NC(C(=O)N[C@@H](Cc2ccccc2)[C@@H](O)C[C@H](Cc2ccccc2)NC(=O)OCc2cccnc2)C(C)C)cs1 (some centres undefined) | 1.24 | 2.29 |  | 30 | 16 | 33.6
